# Measured values from US8143259B2, “Cold menthol receptor antagonists” (Janssen Pharmaceutica, NV, priority 2008, dated 2012).
# Several values for one entry are separate records, joined by “and”; a condition that tells them apart may be missing. Equal entries are not always repeated.
# Molecular target: T1, canine TRPM8 (Canis lupus familiaris, UniProt Q1A7N1)
# T1 construct: expressed in transfected cells
# Experiment: In Vitro Canine TRPM8 Functional Assay (Ca2+ fluorescence, icilin activation)
# Type: cell-based
# Conditions: for inhibition at 1 µM: HEK293, 1 μM compound; for IC50: HEK293 cells stably expressing canine TRPM8, icilin activation, Ca2+ fluorescence; for inhibition at 0.5 µM: HEK293, 0.5 μM compound; for % Inh @ 0.5 μM: 0.5 μM compound
# Outline: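 HEK293 cells stably expressing canine TRPM8, loaded with Calcium 3 dye; compounds added 5 min before icilin at a concentration giving ~80% maximal response. Peak icilin-evoked Ca2+ fluorescence, basal-subtracted and normalised to maximal response, fitted by sigmoidal nonlinear regression; quadruplicate wells.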
# T1 sequence (Q1A7N1 1-1104): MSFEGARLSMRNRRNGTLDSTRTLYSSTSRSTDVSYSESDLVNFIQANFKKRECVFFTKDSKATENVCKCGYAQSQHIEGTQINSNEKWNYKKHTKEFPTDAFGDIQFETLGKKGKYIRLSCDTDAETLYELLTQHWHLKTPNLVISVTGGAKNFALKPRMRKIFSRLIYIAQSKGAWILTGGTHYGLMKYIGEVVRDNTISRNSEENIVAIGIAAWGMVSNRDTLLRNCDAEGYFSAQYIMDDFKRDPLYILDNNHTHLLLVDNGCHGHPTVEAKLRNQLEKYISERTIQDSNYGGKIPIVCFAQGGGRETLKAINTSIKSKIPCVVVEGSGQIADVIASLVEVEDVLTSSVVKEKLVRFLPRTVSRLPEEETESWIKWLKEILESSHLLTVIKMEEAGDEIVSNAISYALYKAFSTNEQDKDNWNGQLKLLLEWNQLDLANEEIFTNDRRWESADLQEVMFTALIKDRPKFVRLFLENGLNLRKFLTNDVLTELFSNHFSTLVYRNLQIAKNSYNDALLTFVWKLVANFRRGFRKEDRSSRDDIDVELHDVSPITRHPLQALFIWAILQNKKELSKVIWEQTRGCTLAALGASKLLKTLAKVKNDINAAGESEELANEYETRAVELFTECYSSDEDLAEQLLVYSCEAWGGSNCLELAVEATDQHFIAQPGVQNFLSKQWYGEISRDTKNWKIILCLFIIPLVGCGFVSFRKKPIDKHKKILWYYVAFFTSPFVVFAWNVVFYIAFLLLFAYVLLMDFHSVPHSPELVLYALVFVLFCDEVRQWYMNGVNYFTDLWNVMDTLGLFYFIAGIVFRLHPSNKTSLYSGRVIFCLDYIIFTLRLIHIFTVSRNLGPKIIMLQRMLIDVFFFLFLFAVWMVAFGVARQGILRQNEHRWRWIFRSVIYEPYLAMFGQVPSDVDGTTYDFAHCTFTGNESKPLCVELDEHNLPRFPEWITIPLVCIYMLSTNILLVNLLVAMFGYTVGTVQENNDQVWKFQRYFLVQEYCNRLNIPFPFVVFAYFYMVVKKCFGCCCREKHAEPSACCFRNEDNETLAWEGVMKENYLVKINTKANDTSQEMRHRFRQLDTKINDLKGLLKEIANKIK
Compound,"inhibition at 1 µM (canine TRPM8 HEK293, icilin) [%]",IC50,"inhibition at 0.5 µM (canine TRPM8 HEK293, icilin) [%]","% Inh @ 0.5 μM (canine TRPM8 HEK293, icilin) [%]","inhibition at 0.2 µM (HEK293, 0.2 μM compound, canine TRPM8 HEK293, icilin) [%]"
CC(C)(C)c1ccc(C(Nc2ccccc2)C(=O)N2CCCCC2c2ccccc2)cc1 (stereo not drawn) [Cpd 11],103,172 nM,,,
CC(C)(C)c1ccc(C(Nc2ccccc2)C(=O)N2CCCC2c2ccccc2)cc1 (stereo not drawn) [Cpd 12],103,60.6 nM,,,
CC(C)(C)c1ccc(C(Nc2ccccc2)C(=O)N2CCC(c3ccccc3)C2)cc1 (stereo not drawn) [Cpd 13],103,323 nM,,,
CC(C)(C)c1ccc(C(Nc2ccccc2)C(=O)N2CCCCC2Cc2ccccc2)cc1 (stereo not drawn) [Cpd 14],102,416 nM,,,
CC(C)(C)c1ccc(C(Nc2ccccc2)C(=O)N2CCc3ccccc32)cc1 (stereo not drawn) [Cpd 15],94.8,257 nM,,,
CC(C)(C)c1ccc(C(Nc2ccccc2)C(=O)N2CCCCCC2c2ccccc2)cc1 (stereo not drawn) [Cpd 18],95.4,349 nM,,,
Cc1cccc2c1N(C(=O)C(Nc1ccccc1)c1ccc(C(F)(F)F)cc1)CC2 (stereo not drawn) [Cpd 27],,316 nM,93.2,,
"Cc1ccccc1NC(C(=O)N1CCc2ccccc21)c1ccc(C(F)(F)F)cc1 (stereo not drawn) [Cpd 34, 1-(Indolin-1-yl)-2-(o-tolylamino)-2-(4-(trifluoromethyl)phenyl)-ethanone]",,161 nM,102,,
O=C(C(Nc1ccccc1F)c1ccc(C(F)(F)F)cc1)N1CCc2ccccc21 (stereo not drawn) [Cpd 36],,459 nM,90.7,,
O=C(C(c1ccc(C(F)(F)F)cc1)N1CCc2ccccc21)N1CCc2ccccc21 (stereo not drawn) [Cpd 42],29,231 nM,102,,
CC(C)(C)c1ccc(C(Nc2ccccc2)C(=O)N2CCCC2c2ccncc2)cc1 (stereo not drawn) [Cpd 53],,53.8 nM,99,,
CC(C)(C)c1ccc(C(Nc2ccccc2)C(=O)N2CCCC2c2ccccn2)cc1 (stereo not drawn) [Cpd 54],,,,69.055,
CC(C)(C)c1ccc(C(Nc2ccccc2)C(=O)N2CCCC2c2ccccn2)cc1 (stereo not drawn) [Cpd 55],,207 nM,99.9,,
N#Cc1ccc(C(Nc2ccccc2F)C(=O)N2CCCC2c2ccccc2Cl)cc1 (stereo not drawn) [Cpd 62],,78 nM,103,,
O=C(C(Nc1ccccc1F)c1ccc(C(F)(F)F)cc1)N1Cc2ccccc2C1 (stereo not drawn) [Cpd 64],,22 nM and 25 nM,102,,100
O=C(C(Nc1ccccc1F)c1ccc(C(F)(F)F)cc1)N1CCc2ccccc2C1 (stereo not drawn) [Cpd 65],,48 nM,100,,
O=C(C(Nc1ccccc1)c1ccc(Br)cc1)N1CCCC1c1ccccc1 (stereo not drawn) [Cpd 70],,23 nM,103,,
O=C(C(Nc1ccccc1)c1ccc(Br)cc1)N1Cc2ccccc2C1 (stereo not drawn) [Cpd 71],,74 nM,91,,
COc1ccc(C(Nc2ccccc2)C(=O)N2CCCC2c2ccccc2)cc1 (stereo not drawn) [Cpd 72],,46 nM,102,,
O=C(C(Nc1ccc(F)cc1)c1ccc(C(F)(F)F)cc1)N1Cc2ccccc2C1 (stereo not drawn) [Cpd 77],,84 nM,98,,
COc1ccccc1C1CCCN1C(=O)C(Nc1cccc(F)c1)c1ccc(C(F)(F)F)cc1 (stereo not drawn) [Cpd 79],,50 nM,98,,
O=C(C(Nc1ccccc1)c1ccc(Cl)cc1)N1CCCC1c1ccccc1 (stereo not drawn) [Cpd 86],,15 nM,97,,
O=C(C(Nc1ccccc1)c1ccc(Cl)cc1)N1Cc2ccccc2C1 (stereo not drawn) [Cpd 87],,81 nM,97,,
O=C(C(Nc1ccccc1)c1ccc(Cl)cc1)N1CCc2ccccc2C1 (stereo not drawn) [Cpd 88],,96 nM,99,,
O=C(C(Nc1ccccc1F)c1ccc(Br)cc1)N1CCCC1c1ccccc1Cl (stereo not drawn) [Cpd 89],,20 nM,98,,
O=C(C(Nc1ccccc1F)c1ccc(Br)cc1)N1CCCC1c1ccccc1 (stereo not drawn) [Cpd 91],,14 nM,97,,

# Results, then the compound that gave them:
"inhibition at 1 µM (canine TRPM8 HEK293, icilin) [%]",IC50,"inhibition at 0.5 µM (canine TRPM8 HEK293, icilin) [%]","% Inh @ 0.5 μM (canine TRPM8 HEK293, icilin) [%]","inhibition at 0.2 µM (HEK293, 0.2 μM compound, canine TRPM8 HEK293, icilin) [%]",Compound
98.2,60.3 nM,,,,O=C(C(Nc1ccccc1)c1ccc(C(F)(F)F)cc1)N1CCCC1c1ccccc1 (stereo not drawn) [Cpd 17]
100,282 nM,,,,O=C(C(Nc1ccccc1)c1ccc(C(F)(F)F)cc1)N1CCCC1c1cccnc1 (stereo not drawn) [Cpd 19]
101,29.9 nM,,,,O=C(C(Nc1ccccc1)c1ccc(C(F)(F)F)cc1)N1CCCC1c1ccccc1F (stereo not drawn) [Cpd 20]
,14.9 nM,102,,,O=C(C(Nc1ccccc1)c1ccc(C(F)(F)F)cc1)N1CCCC1c1cccs1 (stereo not drawn) [Cpd 24]
,141 nM,102,,,O=C(C(Nc1ccccc1)c1ccc(C(F)(F)F)cc1)N1CCCC1c1cc2ccccc2[nH]1 (stereo not drawn) [Cpd 25]
,,,56.872,,O=C(C(Nc1ccccc1)c1ccc(C(F)(F)F)cc1)N1CCCC1c1cc2ccccc2[nH]1 (stereo not drawn) [Cpd 26]
,91.7 nM,103,,,O=C(C(Nc1ccccc1)c1ccc(C(F)(F)F)cc1)N1CCCC1c1ccncc1 (stereo not drawn) [Cpd 28]
,40.9 nM,104,,,O=C(C(Nc1ccccc1)c1ccc(C(F)(F)F)cc1)N1CCCC1c1ccccc1Br (stereo not drawn) [Cpd 29]
,31.2 nM,104,,,Cc1ccccc1C1CCCN1C(=O)C(Nc1ccccc1)c1ccc(C(F)(F)F)cc1 (stereo not drawn) [Cpd 32]
,202 nM,96.5,,,O=C(C(Nc1ccccc1)c1ccc(C(F)(F)F)cc1)N1CCc2ccccc21 (stereo not drawn) [Cpd 33]
,33.3 nM,101,,,COc1ccccc1C1CCCN1C(=O)C(Nc1ccccc1)c1ccc(C(F)(F)F)cc1 (stereo not drawn) [Cpd 43]
,57.6 nM,101,,,O=C(C(Nc1ccccc1)c1ccc(C(F)(F)F)cc1)N1CCCCC1c1ccccc1 (stereo not drawn) [Cpd 44]
,78.3 nM,102,,,O=C(C(Nc1ccccc1)c1ccc(C(F)(F)F)cc1)N1CCCC1c1nccs1 (stereo not drawn) [Cpd 49]
,376 nM,83.6,,,O=C(C(Nc1ccccc1)c1ccc(C(F)(F)F)cc1)N1CCCC1c1ccccn1 (stereo not drawn) [Cpd 50]
,19.8 nM,97.8,,,O=C(C(Nc1ccccc1)c1ccc(C(F)(F)F)cc1)N1CCCC1c1ccco1 (stereo not drawn) [Cpd 52]
,,36,,,"O=C(NN1CCCC1c1ccccc1Cl)C(Nc1ccccc1)c1ccc(C(F)(F)F)cc1 (stereo not drawn) [Cpd 63, N-[2-(2-Chloro-phenyl)-pyrrolidin-1-yl]-2-phenylamino-2-(4-trifluoromethyl-phenyl)-acetamide]"
,28 nM,102,,,COc1ccc(C(Nc2ccccc2)C(=O)N2CCCC2c2ccccc2Cl)cc1 (stereo not drawn) [Cpd 66]
,42 nM,102,,,O=C(C(Nc1ccccc1)c1ccc(Br)cc1)N1CCCC1c1ccccc1Cl (stereo not drawn) [Cpd 67]
,73 nM,98,,,O=C(C(Nc1ccc(F)cc1)c1ccc(C(F)(F)F)cc1)N1CCCC1c1ccccc1Cl (stereo not drawn) [Cpd 74]
,138 nM,94,,,O=C(C(Nc1cccc(F)c1)c1ccc(C(F)(F)F)cc1)N1CCCC1c1ccccc1Cl (stereo not drawn) [Cpd 78]
,,69,,,"CC(Nc1ccccc1)(C(=O)N1CCCC1c1ccccc1Cl)c1ccc(C(F)(F)F)cc1 (stereo not drawn) [Cpd 80, 1-[2-(2-Chloro-phenyl)-pyrrolidin-1-yl]-2-phenylamino-2-(4-trifluoromethyl-phenyl)-propan-1-one]"
,15 nM,98,,,O=C(C(Nc1ccccc1)c1ccc(Cl)cc1)N1CCCC1c1ccccc1Cl (stereo not drawn) [Cpd 84]
,6 nM,97,,,COc1ccccc1C1CCCN1C(=O)C(Nc1ccccc1)c1ccc(Cl)cc1 (stereo not drawn) [Cpd 85]
